In PMC12637173, “Investigation on LASSBio‐1971 and LASSBio‐1974 Cellular Cytotoxic Mechanism and Their Comparative DMPK Profile” (Archiv Der Pharmazie, 2025):
Where two headings read alike, the source gives them in different places.

What was measured:
[1] = PAMPA-GIT, standard drugs; literature value, ref not given; cited from earlier work
EGFRwt = system: EGFRwt; design: method as in PMID 30626888; settings: in vitro enzymatic model; cited from earlier work
PC‐9 (EGFRL858R) [2] = experiment: Apoptosis by flow cytometry (Muse Annexin V & Dead Cell Kit); type: cell-based, human; settings: PC‐9, 72 h
Method: (§1) PC‐9 (EGFRL858R) cell line was seeded at 1 × 10^5 cells/well in a 24‐well plate. […] All flow cytometry assays were performed using Guava Muse Cell Analyzer (Cytek Biosciences) following each kit user's guide provided by the manufacturer. Muse Cell Cycle Kit (catalog no. MCH100106) was chosen to evaluate cell cycle arresting. Apoptosis features were evaluated using Muse Annexin V & Dead Cell Kit (catalog no. MCH100105), as well as inactivation of EGFR using Muse EGFR‐RTK Activation Dual Detection Kit (catalog no. MCH200102). Statistical analysis was performed using one‐way ANOVA on data collected in duplicate from at least two independent experiments (n ≥ 2), employing GraphPad Prism software (version 8.0).

PC‐9 (EGFRL858R) [3] = experiment: Cell cycle by flow cytometry (Muse Cell Cycle Kit); type: cell-based, human; settings: PC‐9, 24 h
Method: as §1

PAMPA‐GIT = type: in vitro ADME
Method: (§2) The lipid mixture that impregnates the filter has a different constitution for the permeability tests for the BBB (brain lipid from pig extract in n‐dodecane) and the GIT (L‐α soy phosphatidylcholine in n‐dodecane). The optical density values obtained in the reading at each selected wavelength, for each of the compounds, were analyzed in comparison with the values of several controls within a calibration curve (≥ 7 drugs). In the case of the BBB, these values were used to elaborate an equation and determine the permeability coefficient (Pe), while GIT used absorbed fraction (Fa%).

EGFRL858R = system: EGFRL858R; design: method as in PMID 30626888; settings: in vitro enzymatic model; cited from earlier work
PC‐9 (EGFRL858R) [4] = experiment: Cell viability by sulforhodamine B (SRB) assay, PC-9; settings: Homo sapiens, 72 h, read-out: cytotoxic activity CC50, PC‐9 (EGFRL858R)
Method: (§3) All cell lines were harvested at 37°C and 5% CO2 atmosphere humid incubator.
(§4) Cells were plated at 1 × 10^4 to 3 × 10^4 cells/well and seeded in a 96‐well plate. After 16–24 h of cell acclimatization, compounds were added at 0.003–100 µM concentrations (1% DMSO as vehicle). The experimental procedure was handled as described by Vichai and Kirtikara [63]. After incubation, cells were fixed with trichloroacetic acid (TCA) (10% m/v) for 1 h at 4°C. SRB (0.004% w/v in acetic acid 1%) was added for 30 min and washed with acetic acid 1%.

[5] = system: NCI‐H1975 (EGFRL858R/T790M); experiment: Cell viability by sulforhodamine B (SRB) assay, NCI-H1975; type: cell-based; settings: Homo sapiens, 72 h, read-out: cytotoxic activity CC50, NCI‐H1975 (EGFRL858R/T790M)
Method: as §3, §4

NCI‐H292 (EGFRwt) [6] = experiment: Cell viability by MTT assay, NCI-H292; settings: for IC50: read-out: cytotoxic activity, NCI-H292 (EGFRw.t.)
Method: as §3
(§5) Cells were plated at 1 × 10^4 to 3 × 10^4 cells/well and seeded in a 96‐well plate. After 16–24 h of cell acclimatization, compounds were added at 0.003–100 µM concentrations (1% DMSO vehicle). After 72 h, treatment was interrupted to measure cell viability using MTT (3‐(4,5‐dimethylthiazol‐2‐yl)‐2,5‐diphenyltetrazolium bromide) (50 µg/mL) [62]. Formazan formed by viable cells was solubilized after 4 h incubation with SDS/HCl solution (0.1 g/mL) and read at 570 nm in spectrophotometer.

EGFRL858R/T790M = system: EGFRL858R/T790M; design: method as in PMID 30626888; settings: in vitro enzymatic model; cited from earlier work
PC‐9 (EGFRL858R) [7] = experiment: Cell viability by MTT assay, PC-9; settings: Homo sapiens; for IC50: read-out: cytotoxic activity, PC-9 (EGFRL858R); for CC50: 72 h, read-out: cytotoxic activity CC50, PC‐9 (EGFRL858R)
Method: as §3, §5

PAMPA‐BBB = type: in vitro ADME; settings: for Classification BBB / Pe. Exp. BBB / Papp: PAMPA‐BBB; for Pe. Exp. BBB / Papp: mean ± standard deviation (n = 3); for Papp: read-out: Pe. Exp. BBB
Method: as §2

[8] = system: NCI‐H1975 (EGFRL858R/T790M); experiment: Cell viability by MTT assay, NCI-H1975; settings: Homo sapiens; for IC50: read-out: cytotoxic activity, NCI-H1975 (EGFRL858R/T790M); for CC50: NCI-H1975, 72 h, read-out: cytotoxic activity CC50, NCI‐H1975 (EGFRL858R/T790M)
Method: as §3, §5

[9] = Microsomal metabolic stability; type: in vitro ADME, rat; settings: for Metabolism rate: RLM 1 mg/mL, 10 μM, 60 min; for half-life at 10 µM / microsomal CLint at 10 µM: rat, rat liver microsomes
Method: The metabolic stability of compounds LASSBio‐1971 (1) and LASSBio‐1974 (2) (10 μM) was incubated in 1 mg/mL of rat microsomes in the presence and absence of the cofactor (i.e., NADPH‐generating system) at the same concentrations as in the previous section. After mixing and incubating at 37°C in a shaking water bath for 1 h, 500 µL cold acetonitrile containing the internal standard was added to terminate the reaction at different time intervals (0, 15, 30, 45, and 60 min).

NCI‐H292 (EGFRwt) [10] = experiment: Cell viability by sulforhodamine B (SRB) assay, NCI-H292; settings: Homo sapiens, NCI-H292, 72 h, read-out: cytotoxic activity CC50, NCI‐H292 (EGFRwt)
Method: as §3, §4

EGFR in PC‐9 (EGFRL858R) = experiment: EGFR activation by flow cytometry (Muse EGFR‐RTK Activation Dual Detection Kit); type: cell-based, human; settings: PC‐9, at respective CC50, compared to vehicle (DMSO 1%)
Method: as §1

[11] = Conjugation with glutathione in rat liver microsomes; type: in vitro ADME; settings: RLM 1 mg/mL, 10 μM, 2 mM GSH, 60 min, LC/MS/MS
Method: Incubation with pooled RLMs (1 mg/mL protein) was conducted in 50 mM potassium phosphate buffer (pH 7.4) at 37°C in an incubator for 60 min. LASSBio‐1971 (1) and P‐chlorophenyl isocyanate (10 μM) and 2 mM GSH were added to the buffer. The incubation was initiated by NADPH‐generating system consisting of 40 mM NADP^+, 350 mM glucose‐6‐phosphate, 5 units/mL glucose‐6‐phosphate dehydrogenase, and 130 mM MgCl2. The incubation was terminated at 60 min by the addition of 1 mL of ACN (with 6% of formic acid, with a total volume of 1.25 mL). The quenched sample was then centrifuged at 10,500 × g for 15 min, and 1 mL of the supernatant was collected to be injected into the Q‐Exactive Plus ESI MS System (Thermo Scientific, USA).

[12] = PAMPA‐GIT, mean ± standard deviation (n = 3), read-out: Pe. Exp. GIT
[13] = Homo sapiens, NCI-H292, 72 h, read-out: cytotoxic activity CC50, NCI‐H292 (EGFRwt), MTT, 72 h
[14] = NADPH regenerator system: Absence
[15] = NADPH regenerator system: Presence
[16] = RLM, NADPH regenerator system: Absence
[17] = RLM, NADPH regenerator system: Presence

| Fa (absorbed fraction) (PAMPA‐GIT; PAMPA‐GIT) | Papp (PAMPA‐GIT; [12]) | Classification BBB (PAMPA‐BBB) | Pe. Exp. BBB (PAMPA‐BBB) | Compound | Fa lit. [1] | Pe literature [1] | IC50 (EGFRwt) | cell cycle arrest phase (PC‐9 (EGFRL858R) [3]; 1 µM) | Classification GIT (PAMPA‐GIT; PAMPA‐GIT) | IC50 (EGFRL858R) | CC50 (PC‐9 (EGFRL858R) [4]) | CC50 [5] | IC50 (NCI‐H292 (EGFRwt) [6]; Homo sapiens, NCI-H292, 24 h) | IC50 (NCI‐H292 (EGFRwt) [6]; Homo sapiens, NCI-H292, 48 h) | CC50 (NCI‐H292 (EGFRwt) [6]; [13]) | IC50 (EGFRL858R/T790M) | IC50 (PC‐9 (EGFRL858R) [7]; 24 h) | IC50 (PC‐9 (EGFRL858R) [7]; 48 h) | CC50 (PC‐9 (EGFRL858R) [7]) | IC50 ([8]; NCI-H1975, 48 h) | further results |
| --- | --- | --- | --- | --- | --- | --- | --- | --- | --- | --- | --- | --- | --- | --- | --- | --- | --- | --- | --- | --- | --- |
| – | – | – | – | O=C(O)c1cc(/N=N/c2ccc(S(=O)(=O)Nc3ccccn3)cc2)ccc1O [Sulfasalazine] | 42% | 0.30 10^-6 cm s^-1 | – | – | – | – | – | – | – | – | – | – | – | – | – | – | – |
| 26.78% | 0.82 ± 0.47 ×10⁻⁶ cm/s | CNS ± | 2.37 10^−6 cm/s | CN(C)C/C=C/C(=O)Nc1ccc2ncc(NC(=O)Nc3ccccc3)nc2c1 [LASSBio‐1974 (2)] | – | – | 101 ± 12 nM | cycle arresting in the G0/G1 phase | Low (low permeability (0%–29%)) | 32 ± 14 nM | 1220 nM | 20.5 µM | 16.4 µM | 7.25 µM | 4980 nM | 132 ± 49 nM | 9.74 µM | 1.22 µM | 1100 nM | 6.58 µM | phosphatidylserine externalization and cell membrane permeabilization, share of the NSCLC cell population (PC‐9 (EGFRL858R) [2]; LASSBio‐1974 10 µM, CA‐4 0.1 µM): ~90%; cell cycle arrest phase (PC‐9 (EGFRL858R) [3]; 10 µM): cell cycle arrest in G2/M phase; Papp (PAMPA‐BBB): 2.37 ± 0.44 ×10⁻⁶ cm/s; IC50 ([8]; NCI-H1975, 24 h): 38 µM; CC50 [8]: 7.09 µM; Metabolism rate [9, 14]: 10.78%; Metabolism rate [9, 15]: 83.11%; Elimination rate constant (k) [9, 16]: 0.0016; Elimination rate constant (k) [9, 17]: 0.1172; half-life at 10 µM [9, 16]: 433 min; microsomal CLint at 10 µM [9, 16]: 0.4 µL/min/mg; half-life at 10 µM [9, 17]: 5.91 min; microsomal CLint at 10 µM [9, 17]: 29.3 µL/min/mg; CC50 (NCI‐H292 (EGFRwt) [10]): 8.99 µM; inhibition of phosphorylation and activation of EGFR (EGFR in PC‐9 (EGFRL858R)): inhibit phosphorylation |
| 94.62% | 7.69 ± 0.7 ×10⁻⁶ cm/s | CNS + | 4.16 10^−6 cm/s | C=CC(=O)Nc1ccc2ncc(NC(=O)Nc3ccccc3)nc2c1 [LASSBio‐1971 (1)] | – | – | 25 ± 4 nM | G0/G1 phase arrest | High (high intestinal permeability (70%–100%)) | 18 ± 3 nM | 1020 nM | 18.5 µM | 18.4 µM | 8.85 µM | 1500 nM | 1680 ± 1510 nM | 6.42 µM | 0.14 µM | 130 nM | 6.45 µM | apoptosis phenotype induction (PC‐9 (EGFRL858R) [2]): could not induce an apoptosis phenotype; CC50 (NCI‐H292 (EGFRwt) [6]; read-out: cytotoxic activity CC50, NCI‐H292 (EGFRwt), MTT, 72 h): 1510 nM; Papp (PAMPA‐BBB): 4.16 ± 1.84 ×10⁻⁶ cm/s; covalent adduct formation with glutathione [11]: a covalent adduct between glutathione and LASSBio‐1971 (1) was formed; IC50 ([8]; NCI-H1975, 24 h): 51.3 µM; CC50 [8]: 5.1 µM; Metabolism rate [9, 14]: 21.99%; Metabolism rate [9, 15]: 53.93%; Elimination rate constant (k) [9, 16]: 0.0039; Elimination rate constant (k) [9, 17]: 0.0129; t 1/2 [9, 17]: 53.72 min; half-life at 10 µM [9, 16]: 178 min; microsomal CLint at 10 µM [9, 16]: 0.975 µL/min/mg; half-life at 10 µM [9, 17]: 53.7 min; microsomal CLint at 10 µM [9, 17]: 3.23 µL/min/mg; CC50 (NCI‐H292 (EGFRwt) [10]): 4.95 µM; inhibition of phosphorylation and activation of EGFR (EGFR in PC‐9 (EGFRL858R)): inhibit phosphorylation |
| – | – | – | – | C#Cc1cccc(Nc2ncnc3cc(OCCOC)c(OCCOC)cc23)c1 [Erlotinib, erlotinib, reference compound] | – | – | – | – | – | – | – | – | – | – | – | – | – | – | – | > 100 µM | increase in the population of cells undergoing apoptosis (PC‐9 (EGFRL858R) [2]; at their CC50): approximately 10% |
| – | – | – | – | O=C(O)Cc1ccccc1Nc1c(Cl)cccc1Cl [Diclofenac] | 100% | 12.50 10^-6 cm s^-1 | – | – | – | – | – | – | – | – | – | – | – | – | – | – | Classification (PAMPA‐GIT; PAMPA-GIT, standard drugs used as control): High (high intestinal permeability (70%–100%)); Fa exp. (PAMPA‐GIT; PAMPA-GIT, standard drugs used as control (n = 2)): 99.31%; Papp (PAMPA‐GIT; PAMPA-GIT, standard drugs used as control (n = 2), read-out: Pe experimental): 13.1 ×10⁻⁶ cm/s |
| – | – | – | – | Cn1c(=O)c2c(ncn2C)n(C)c1=O [Caffeine, reference compound] | – | – | – | – | – | – | – | – | – | – | – | – | – | – | – | – | Classification (PAMPA‐BBB; PAMPA-BBB, standard drugs used as control): CNS - |
